In ChEMBL document CHEMBL4138108, “Novel amidino substituted benzimidazole and benzothiazole benzo[b]thieno-2-carboxamides exert strong antiproliferative and DNA binding properties” (Eur J Med Chem, 2017):
Calls of active or inactive are those of the source. No cut-off for these calls is given here.

Legend:
Calf thymus DNA [1] = assay: Binding affinity to calf thymus duplex DNA assessed as change in melting temperature at drug to DNA ratio of 0.25 measured for every mins by spectrophotometric analysis; format: nucleic-acid assay; conditions: Bos taurus
HeLa = assay: Antiproliferative activity against human HeLa cells after 72 hrs by MTT assay; format: functional, cell-based
[2] = target: T1, DNA topoisomerase 1 (Homo sapiens) (UniProt P11387); assay: Poison activity at human topoisomerase-1 assessed as increase in relaxation of supercoiled pUC19 DNA at 1 to 50 uM by ethidium bromide staining based agarose gel electrophoresis
T1 sequence (whole entry): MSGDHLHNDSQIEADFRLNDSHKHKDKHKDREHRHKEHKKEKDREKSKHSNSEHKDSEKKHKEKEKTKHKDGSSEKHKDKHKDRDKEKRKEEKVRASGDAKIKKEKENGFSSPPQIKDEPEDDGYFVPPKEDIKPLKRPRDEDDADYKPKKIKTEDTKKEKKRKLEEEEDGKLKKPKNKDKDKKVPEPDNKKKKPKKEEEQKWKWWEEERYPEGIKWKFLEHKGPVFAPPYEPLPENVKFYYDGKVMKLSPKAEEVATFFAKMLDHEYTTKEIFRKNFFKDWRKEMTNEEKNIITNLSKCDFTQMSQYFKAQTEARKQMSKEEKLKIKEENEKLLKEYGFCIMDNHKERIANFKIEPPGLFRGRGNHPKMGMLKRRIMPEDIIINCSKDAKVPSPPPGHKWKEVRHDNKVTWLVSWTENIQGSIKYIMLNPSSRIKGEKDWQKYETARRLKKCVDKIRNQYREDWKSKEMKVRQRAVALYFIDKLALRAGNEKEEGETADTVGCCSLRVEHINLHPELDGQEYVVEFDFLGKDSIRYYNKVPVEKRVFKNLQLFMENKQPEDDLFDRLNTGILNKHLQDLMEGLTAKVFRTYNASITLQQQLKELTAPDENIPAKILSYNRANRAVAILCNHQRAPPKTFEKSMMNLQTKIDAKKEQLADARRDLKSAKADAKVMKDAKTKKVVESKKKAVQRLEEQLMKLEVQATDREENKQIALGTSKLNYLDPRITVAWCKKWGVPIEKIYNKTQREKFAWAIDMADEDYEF

[3] = Binding affinity to AT-rich site of 3'-end radiolabelled 265 bp pBS DNA at 0.01 to 10 uM after 15 mins by DNase I footprinting assay
[4] = target: T1, DNA topoisomerase 1 (Homo sapiens); assay: Inhibition of human topoisomerase-1 assessed as increase in accumulation of supercoiled pUC19 DNA at 1 to 50 uM by ethidium bromide staining based agarose gel electrophoresis
WI-38 = assay: Cytotoxicity against human WI38 cells after 72 hrs by MTT assay; format: cell-based; conditions: WI-38, 72 h
[5] = Drug uptake in nucleus of human 786-O cells at 10 uM after 4 hrs by propidium iodide staining-based fluorescence microscopic analysis; format: ADME, subcellular; conditions: 786-0, 4 h
CFPAC-1 = assay: Antiproliferative activity against human CFPAC-1 cells after 72 hrs by MTT assay; format: functional, cell-based; conditions: CFPAC-1, 72 h
[6] = target: T1, DNA topoisomerase 1 (Homo sapiens); assay: Inhibition of human topoisomerase-1 assessed as increase in accumulation of supercoiled pUC19 DNA at 1 to 50 uM in absence of ethidium bromide staining by agarose gel electrophoresis
Calf thymus DNA [7] = assay: Binding affinity to calf thymus duplex DNA assessed as hypochromic effect up to drug to DNA ratio of 1 by UV-visible spectroscopic method; format: nucleic-acid assay; conditions: Bos taurus
SW-620 = assay: Antiproliferative activity against human SW620 cells after 72 hrs by MTT assay; format: functional, cell-based; conditions: SW-620, 72 h
Calf thymus DNA [8] = assay: Binding affinity to calf thymus duplex DNA assessed as change in melting temperature at drug to DNA ratio of 0.5 measured for every mins by spectrophotometric analysis; format: nucleic-acid assay; conditions: Bos taurus
Calf thymus DNA [9] = assay: Binding affinity to calf thymus duplex DNA assessed as hyperchromic effect at drug to DNA ratio of 1 to 8 by UV-visible spectroscopic method; format: nucleic-acid assay; conditions: Bos taurus
Calf thymus DNA [10] = assay: Binding affinity to calf thymus duplex DNA assessed as bathochromic shift at drug to DNA ratio of 1 to 8 by UV-visible spectroscopic method; format: nucleic-acid assay; conditions: Bos taurus
HepG2 = assay: Antiproliferative activity against human HepG2 cells after 72 hrs by MTT assay; format: functional, cell-based; conditions: HepG2, 72 h
Calf thymus DNA [11] = assay: Binding affinity to calf thymus duplex DNA assessed as change in melting temperature at drug to DNA ratio of 1 measured for every mins by spectrophotometric analysis; format: nucleic-acid assay; conditions: Bos taurus
Calf thymus DNA [12] = assay: Binding affinity to calf thymus duplex DNA by CD spectrum analysis; format: nucleic-acid assay; conditions: Bos taurus
[13] = target: T1, DNA topoisomerase 1 (Homo sapiens); assay: Poison activity at human topoisomerase-1 assessed as increase in relaxation of supercoiled pUC19 DNA at 50 uM by ethidium bromide staining based agarose gel electrophoresis
Calf thymus DNA [14] = assay: Binding affinity to calf thymus duplex DNA assessed as hyperchromic effect up to drug to DNA ratio of 8 by UV-visible spectroscopic method; format: nucleic-acid assay; conditions: Bos taurus
Calf thymus DNA [15] = assay: Binding affinity to calf thymus duplex DNA assessed as bathochromic shift up to drug to DNA ratio of 8 by UV-visible spectroscopic method; format: nucleic-acid assay; conditions: Bos taurus
Calf thymus DNA [16] = assay: Binding affinity to calf thymus duplex DNA assessed as hypochromic effect up to drug to DNA ratio of 8 by UV-visible spectroscopic method; format: nucleic-acid assay; conditions: Bos taurus

| IC50 (HeLa) | inhibition [4] | Drug uptake [5] | inhibition [6] | Activity (Calf thymus DNA [7]) | IC50 (SW-620) | ΔTm (Calf thymus DNA [8]) | Activity (Calf thymus DNA [9]) | Activity (Calf thymus DNA [10]) | IC50 (HepG2) | ΔTm (Calf thymus DNA [11]) | Compound | Activity [2] | IC50 (WI-38) | IC50 (CFPAC-1) | other results |
| --- | --- | --- | --- | --- | --- | --- | --- | --- | --- | --- | --- | --- | --- | --- | --- |
| > 100 µM | Active | Active | Active | Active | > 100 µM | 16.6 °C | Active | Active | > 100 µM | – | Cl.Cl.O=C(Nc1nc2ccc(C3=NCCN3)cc2[nH]1)c1sc2cc(C3=NCCN3)ccc2c1Cl | inactive | 56.3 µM | > 100 µM | ΔTm (Calf thymus DNA [1]): 14.6 °C; Activity [3]: Active |
| 49.1 µM | – | – | – | – | 82 µM | 1 °C | – | – | 95.2 µM | 1.5 °C | O=C(Nc1nc2ccc(C3=NCCN3)cc2s1)c1sc2cc(C3=NCCN3)ccc2c1Cl | – | 86.5 µM | 61.3 µM | – |
| 4.09 µM | – | – | – | – | 4.44 µM | -0.2 °C | – | – | 4.51 µM | -1.7 °C | O=C(Nc1nc2ccc(C3=NCCN3)cc2s1)c1sc2ccccc2c1Cl | – | 5.06 µM | 4.18 µM | – |
| 3.89 µM | – | Active | – | Active | 10.3 µM | 1.9 °C | Active | Active | 5.41 µM | 3.9 °C | Cl.O=C(Nc1nc2ccc(C3=NCCN3)cc2[nH]1)c1sc2ccccc2c1Cl | – | 9.94 µM | 20.7 µM | Activity (Calf thymus DNA [12]): Dose-dependent effect; Activity [13]: inactive |
| 1.16 µM | inactive | – | – | – | 7.05 µM | – | – | – | 14.2 µM | – | O=C(Nc1nc2ccccc2s1)c1sc2cc(C3=NCCN3)ccc2c1Cl | inactive | 4.24 µM | 5.04 µM | Activity (Calf thymus DNA [12]): Dose-dependent effect; Activity (Calf thymus DNA [14]): inactive; Activity (Calf thymus DNA [15]): inactive; Activity (Calf thymus DNA [16]): Active |
| 2.61 µM | Active | – | Active | Active | 6.18 µM | 2.4 °C | – | – | 2.23 µM | 2.4 °C | O=C(Nc1nc2ccc([N+](=O)[O-])cc2[nH]1)c1sc2cc(C3=NCCN3)ccc2c1Cl | inactive | 4.06 µM | 6.93 µM | – |
| 2.31 µM | Active | Active | Active | Active | 5.49 µM | 3.7 °C | Active | Active | 2.47 µM | 6.3 °C | Cl.O=C(Nc1nc2ccccc2[nH]1)c1sc2cc(C3=NCCN3)ccc2c1Cl | inactive | 2.97 µM | 4.84 µM | – |
| 5.58 µM | – | – | – | – | 69.1 µM | -0.8 °C | – | – | 6.43 µM | 0.8 °C | O=C(Nc1nc2ccc(C3=NCCN3)cc2s1)c1sc2cc([N+](=O)[O-])ccc2c1Cl | – | > 100 µM | 6.81 µM | – |
